Data as given in ChEMBL document CHEMBL1201862, “PubChem BioAssay data set” (2004).
Activity calls are given as the source filed them.

Key:
[1] = AlphaScreen signal interference compounds, dose response, artefact control for ARNT-TACC3 interaction inhibitor project, biochemical, luminescence, cherry-pick (AID 651705); assay type: functional;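 note: AlphaScreen bead proximity signal that flags compounds interfering with the detection technology; potency reflects signal decrease which marks the compound as an assay artifact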
[2] = growth suppression of PTEN-null colon cells, dose response, cell-based, HCT116 PTEN knockout (AID 1047); assay type: functional;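 note: HCT116 colon tumor cells with PTEN knocked out; cells exposed to compound for 60 hours before readout; potency for loss of cell viability measured by luminescence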
[3] = growth suppression of beta-catenin-knockout colon cells, dose response, cell-based, HCT116, human colon tumor (AID 1045); assay type: functional;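 note: HCT116 colon tumor cells with beta catenin knocked out; cells exposed to compound for 60 hours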
[4] = target: Heat shock protein HSP 90-alpha (Homo sapiens, UniProt P07900); assay type: functional, organism-based
[5] = target: T1, Sentrin-specific protease 8 (Homo sapiens, UniProt Q96LD8); assay type: functional
T1 sequence (Q96LD8 whole entry): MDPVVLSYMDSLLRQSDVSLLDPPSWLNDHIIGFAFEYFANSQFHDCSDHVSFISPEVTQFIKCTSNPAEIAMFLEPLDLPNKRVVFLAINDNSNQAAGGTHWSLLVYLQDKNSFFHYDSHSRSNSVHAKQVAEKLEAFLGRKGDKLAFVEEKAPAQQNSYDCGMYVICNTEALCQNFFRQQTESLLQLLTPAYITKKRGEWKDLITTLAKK

[6] = target: T1, Sentrin-specific protease 8; assay type: functional; remark: listed apart in the source
[7] = NIH-3T3 fibroblast cytotoxicity, dose response, cytotoxicity control, cell-based, fluorescence, Alamar Blue, secondary assay (AID 2327); assay type: functional;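 note: NIH-3T3 mouse fibroblasts cultured with fluconazole at 8 µg/mL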
[8] = C. albicans growth with fluconazole, confirmation, fluorescence, retest (AID 2467); assay type: functional, cell-based
[9] = cytotoxicity in HEK-293T cells, dose response, cytotoxicity control for TCR NF-kB inhibitor project, luminescence, T-cell screen hits (AID 489026); assay type: functional, cell-based;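 note: cells exposed to compound about 14 hours before the viability readout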
INS1 = experiment: beta cell apoptosis inhibitors, cytokine rescue, dose response, luminescence, retest (AID 449756); assay type: functional, cell-based; conditions: Rattus norvegicus;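 note: cell death triggered by IL-1 beta plus TNF-alpha plus IFN-gamma mixture; protective hits raise ATP signal compared with cytokine alone wells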
[10] = target: T2, DNA repair protein RAD52 homolog (Homo sapiens, UniProt P43351); assay type: functional, biochemical
T2 sequence (P43351 whole entry): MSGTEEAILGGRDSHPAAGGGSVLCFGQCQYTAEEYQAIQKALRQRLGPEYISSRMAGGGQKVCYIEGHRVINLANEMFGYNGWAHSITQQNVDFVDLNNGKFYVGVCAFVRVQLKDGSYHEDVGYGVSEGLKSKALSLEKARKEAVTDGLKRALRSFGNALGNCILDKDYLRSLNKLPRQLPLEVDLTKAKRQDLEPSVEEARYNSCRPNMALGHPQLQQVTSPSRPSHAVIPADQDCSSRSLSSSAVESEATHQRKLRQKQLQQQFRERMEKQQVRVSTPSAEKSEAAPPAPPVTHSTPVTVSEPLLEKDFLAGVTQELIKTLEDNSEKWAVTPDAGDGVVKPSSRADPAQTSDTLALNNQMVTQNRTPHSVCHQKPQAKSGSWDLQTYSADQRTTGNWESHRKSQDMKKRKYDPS

Beta-galactosidase = Beta-galactosidase (Escherichia coli, UniProt Q8VNN2); experiment: PubChem AID 485352; assay type: functional
[11] = target: T3, Type-1 angiotensin II receptor (Homo sapiens, UniProt P30556); experiment: AT1 receptor antagonists, dose response, selectivity assay for APJ receptor antagonist project, cell-based, uHTS hits (AID 463214); assay type: functional;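 note: antagonist potency against angiotensin II stimulated AT1 response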
T3 sequence (P30556 whole entry): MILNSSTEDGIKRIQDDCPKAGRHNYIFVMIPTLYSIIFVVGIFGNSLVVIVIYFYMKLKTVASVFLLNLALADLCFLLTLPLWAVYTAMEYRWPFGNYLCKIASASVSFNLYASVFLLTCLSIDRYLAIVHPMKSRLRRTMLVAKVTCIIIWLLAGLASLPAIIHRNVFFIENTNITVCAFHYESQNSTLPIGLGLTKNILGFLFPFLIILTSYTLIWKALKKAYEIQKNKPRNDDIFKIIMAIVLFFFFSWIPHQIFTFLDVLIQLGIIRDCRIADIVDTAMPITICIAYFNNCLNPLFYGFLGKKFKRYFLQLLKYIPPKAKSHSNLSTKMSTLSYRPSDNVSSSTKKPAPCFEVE

HEK293 = experiment: inhibitors of LMP1-driven NF-kB reporter, dose response, cell-based, HEK293, luciferase, cherry-pick (AID 588343); assay type: functional; conditions: Homo sapiens
Large T antigen = Large T antigen (Simian virus 40, UniProt P03070); assay type: functional, Betapolyomavirus macacae;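 note: Confirmatory-stage PubChem screen for compounds that inhibit SV40 T antigen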
[12] = target: Glucose-6-phosphate 1-dehydrogenase (Homo sapiens, UniProt P11413); experiment: human G6PD enzyme inhibitors, dose response, selectivity assay for P. falciparum G6PD inhibitor project, biochemical, fluorescence (AID 504792); assay type: functional
[13] = target: DNA dC->dU-editing enzyme APOBEC-3G (Homo sapiens, UniProt Q9HC16); experiment: Dose Response confirmation of small molecule APOBEC3G DNA Deaminase Inhibitors via a fluorescence-based single-stranded DNA deaminase assay. [Related pubchem assays (depositor defined):AID493012, AID493028]; assay type: functional
[14] = target: T4, Mitochondrial peptide methionine sulfoxide reductase (Bos taurus, UniProt P54149); experiment: Absorbance-based biochemical high throughput dose response assay for activators of Methionine sulfoxide reductase A (MsrA).; assay type: functional
T4 sequence (P54149 whole entry): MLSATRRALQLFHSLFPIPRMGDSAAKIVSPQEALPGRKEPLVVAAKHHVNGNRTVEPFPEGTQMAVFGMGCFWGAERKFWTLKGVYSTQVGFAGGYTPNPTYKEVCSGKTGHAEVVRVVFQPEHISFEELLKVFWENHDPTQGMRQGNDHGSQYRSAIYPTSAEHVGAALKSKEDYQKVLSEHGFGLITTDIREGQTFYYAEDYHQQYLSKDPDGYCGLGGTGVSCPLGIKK

[15] = target: T5, Adenosylmethionine-8-amino-7-oxononanoate aminotransferase (Mycobacterium tuberculosis, UniProt P9WQ81); experiment: Mycobacterium tuberculosis BioA enzyme inhibitor Measured in Biochemical System Using Plate Reader - 2163-02_Inhibitor_Dose_CherryPick_Activity.; assay type: functional, Mycobacterium tuberculosis UT205
T5 sequence (P9WQ81 whole entry): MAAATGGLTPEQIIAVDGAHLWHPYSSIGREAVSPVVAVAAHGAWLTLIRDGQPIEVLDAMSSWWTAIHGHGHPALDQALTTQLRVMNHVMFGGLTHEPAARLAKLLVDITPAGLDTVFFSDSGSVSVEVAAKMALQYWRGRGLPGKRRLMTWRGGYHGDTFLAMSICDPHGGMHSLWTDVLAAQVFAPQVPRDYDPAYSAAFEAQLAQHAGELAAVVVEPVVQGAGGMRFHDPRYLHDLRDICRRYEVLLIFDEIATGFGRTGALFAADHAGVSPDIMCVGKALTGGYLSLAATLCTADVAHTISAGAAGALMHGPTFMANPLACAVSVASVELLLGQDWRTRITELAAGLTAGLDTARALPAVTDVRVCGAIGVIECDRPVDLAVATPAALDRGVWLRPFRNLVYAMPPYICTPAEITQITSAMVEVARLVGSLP

[16] = target: SWI/SNF-related matrix-associated actin-dependent regulator of chromatin subfamily A member 2 (Homo sapiens, UniProt P51531); experiment: Luminescence-based cell-based high throughput dose response assay to identify activators of the function of SWI/SNF related, matrix associated, actin dependent regulator of chromatin, subfamily a, member 2 (SMARCA2, BRM).; assay type: functional
[17] = Counterscreen for activators of the function of SWI/SNF related, matrix associated, actin dependent regulator of chromatin, subfamily a, member 2 (SMARCA2, BRM): Luminescence-based cell-based high throughput dose response assay to identify non-selective compounds using the VP16 reporter assay.; assay type: functional
Cytochrome P450 2C19 = Cytochrome P450 2C19 (Homo sapiens, UniProt P33261); experiment: Cytochrome panel assay with activity outcomes. Panel member name: p450-cyp2c19 Compounds with AC50 equal or less than 10 uM are considered active; assay type: functional; conditions: read-out: AC50
Cytochrome P450 3A4 = Cytochrome P450 3A4 (Homo sapiens, UniProt P08684);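 note: CYP3A4 tested as one member of a cytochrome P450 panel screen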
Cytochrome P450 2C9 = Cytochrome P450 2C9 (Homo sapiens, UniProt P11712)
Interleukin-8 = target: T6, Interleukin-8 (Homo sapiens, UniProt P10145); experiment: Dose Response confirmation of uHTS small molecule hits for cystic fibrosis induced NFkb Inhibitors in a PAF-induced IL8 counterscreen.; assay type: functional; conditions: read-out: IC50_Mean
T6 sequence (P10145 whole entry): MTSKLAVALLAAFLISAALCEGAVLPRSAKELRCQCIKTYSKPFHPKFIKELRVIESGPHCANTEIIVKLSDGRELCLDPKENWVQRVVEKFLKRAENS

Chain of SWI/SNF-related matrix-associated actin-dependent regulator of chromatin subfamily A member 2 (P51531 whole entry): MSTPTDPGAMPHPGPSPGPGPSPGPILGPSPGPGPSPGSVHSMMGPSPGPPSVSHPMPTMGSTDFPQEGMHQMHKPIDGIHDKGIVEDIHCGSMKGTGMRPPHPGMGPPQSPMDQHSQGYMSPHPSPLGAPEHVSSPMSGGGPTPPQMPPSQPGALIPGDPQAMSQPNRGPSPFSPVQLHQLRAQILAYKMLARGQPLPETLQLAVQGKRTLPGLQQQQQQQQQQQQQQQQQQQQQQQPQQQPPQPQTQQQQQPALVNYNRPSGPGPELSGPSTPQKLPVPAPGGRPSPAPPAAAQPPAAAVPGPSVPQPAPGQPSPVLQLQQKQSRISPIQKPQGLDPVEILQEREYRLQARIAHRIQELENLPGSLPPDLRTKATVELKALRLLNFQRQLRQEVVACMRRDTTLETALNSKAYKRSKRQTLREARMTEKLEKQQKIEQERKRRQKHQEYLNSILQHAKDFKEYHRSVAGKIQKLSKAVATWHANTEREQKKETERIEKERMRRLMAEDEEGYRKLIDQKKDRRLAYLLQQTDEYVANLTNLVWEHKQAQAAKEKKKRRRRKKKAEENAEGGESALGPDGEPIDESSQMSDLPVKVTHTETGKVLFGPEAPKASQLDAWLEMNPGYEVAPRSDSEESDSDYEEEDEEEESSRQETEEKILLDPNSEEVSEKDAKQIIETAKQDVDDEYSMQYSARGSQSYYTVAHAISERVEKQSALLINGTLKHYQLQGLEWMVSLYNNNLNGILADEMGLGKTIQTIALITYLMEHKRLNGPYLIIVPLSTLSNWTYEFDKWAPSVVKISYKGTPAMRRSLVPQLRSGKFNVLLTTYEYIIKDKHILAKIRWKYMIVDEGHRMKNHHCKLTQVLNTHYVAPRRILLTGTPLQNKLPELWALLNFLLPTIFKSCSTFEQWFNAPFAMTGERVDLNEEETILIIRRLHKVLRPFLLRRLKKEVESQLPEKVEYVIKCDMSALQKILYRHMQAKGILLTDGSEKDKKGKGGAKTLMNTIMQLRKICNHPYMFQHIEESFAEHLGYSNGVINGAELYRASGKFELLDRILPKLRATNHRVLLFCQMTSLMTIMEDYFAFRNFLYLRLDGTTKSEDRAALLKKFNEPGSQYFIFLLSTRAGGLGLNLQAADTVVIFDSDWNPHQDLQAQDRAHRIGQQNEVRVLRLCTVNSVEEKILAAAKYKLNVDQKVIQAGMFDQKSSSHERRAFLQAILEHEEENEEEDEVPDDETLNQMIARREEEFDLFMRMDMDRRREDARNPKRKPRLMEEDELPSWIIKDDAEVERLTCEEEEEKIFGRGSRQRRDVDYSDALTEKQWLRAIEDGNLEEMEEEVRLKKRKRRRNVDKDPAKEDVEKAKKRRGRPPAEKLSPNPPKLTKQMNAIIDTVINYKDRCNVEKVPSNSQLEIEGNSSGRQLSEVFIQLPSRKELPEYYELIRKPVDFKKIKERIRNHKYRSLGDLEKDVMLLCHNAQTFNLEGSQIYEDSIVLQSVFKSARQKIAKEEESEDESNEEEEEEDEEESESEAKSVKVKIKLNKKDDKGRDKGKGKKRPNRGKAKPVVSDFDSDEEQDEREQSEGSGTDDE
Chain of Large T antigen (P03070 whole entry): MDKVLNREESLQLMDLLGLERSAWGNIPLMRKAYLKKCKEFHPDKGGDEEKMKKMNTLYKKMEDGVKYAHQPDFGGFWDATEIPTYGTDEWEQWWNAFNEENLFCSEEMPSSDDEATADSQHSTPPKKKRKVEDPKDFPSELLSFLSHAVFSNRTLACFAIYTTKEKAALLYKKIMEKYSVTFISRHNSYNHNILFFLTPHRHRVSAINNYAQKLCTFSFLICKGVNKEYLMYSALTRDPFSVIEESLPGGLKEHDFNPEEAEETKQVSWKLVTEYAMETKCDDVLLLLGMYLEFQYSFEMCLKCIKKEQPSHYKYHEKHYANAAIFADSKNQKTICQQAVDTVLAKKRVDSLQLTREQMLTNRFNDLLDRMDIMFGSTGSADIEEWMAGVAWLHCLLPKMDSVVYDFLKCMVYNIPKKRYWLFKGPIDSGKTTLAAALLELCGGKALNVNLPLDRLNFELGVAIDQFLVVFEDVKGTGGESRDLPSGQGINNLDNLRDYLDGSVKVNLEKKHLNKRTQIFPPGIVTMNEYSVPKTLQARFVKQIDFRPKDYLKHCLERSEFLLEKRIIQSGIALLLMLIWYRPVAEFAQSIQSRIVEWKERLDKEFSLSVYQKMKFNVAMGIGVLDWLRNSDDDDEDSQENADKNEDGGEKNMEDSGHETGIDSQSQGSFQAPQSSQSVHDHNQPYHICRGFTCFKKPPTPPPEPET
Chain of Beta-galactosidase (Q8VNN2 whole entry): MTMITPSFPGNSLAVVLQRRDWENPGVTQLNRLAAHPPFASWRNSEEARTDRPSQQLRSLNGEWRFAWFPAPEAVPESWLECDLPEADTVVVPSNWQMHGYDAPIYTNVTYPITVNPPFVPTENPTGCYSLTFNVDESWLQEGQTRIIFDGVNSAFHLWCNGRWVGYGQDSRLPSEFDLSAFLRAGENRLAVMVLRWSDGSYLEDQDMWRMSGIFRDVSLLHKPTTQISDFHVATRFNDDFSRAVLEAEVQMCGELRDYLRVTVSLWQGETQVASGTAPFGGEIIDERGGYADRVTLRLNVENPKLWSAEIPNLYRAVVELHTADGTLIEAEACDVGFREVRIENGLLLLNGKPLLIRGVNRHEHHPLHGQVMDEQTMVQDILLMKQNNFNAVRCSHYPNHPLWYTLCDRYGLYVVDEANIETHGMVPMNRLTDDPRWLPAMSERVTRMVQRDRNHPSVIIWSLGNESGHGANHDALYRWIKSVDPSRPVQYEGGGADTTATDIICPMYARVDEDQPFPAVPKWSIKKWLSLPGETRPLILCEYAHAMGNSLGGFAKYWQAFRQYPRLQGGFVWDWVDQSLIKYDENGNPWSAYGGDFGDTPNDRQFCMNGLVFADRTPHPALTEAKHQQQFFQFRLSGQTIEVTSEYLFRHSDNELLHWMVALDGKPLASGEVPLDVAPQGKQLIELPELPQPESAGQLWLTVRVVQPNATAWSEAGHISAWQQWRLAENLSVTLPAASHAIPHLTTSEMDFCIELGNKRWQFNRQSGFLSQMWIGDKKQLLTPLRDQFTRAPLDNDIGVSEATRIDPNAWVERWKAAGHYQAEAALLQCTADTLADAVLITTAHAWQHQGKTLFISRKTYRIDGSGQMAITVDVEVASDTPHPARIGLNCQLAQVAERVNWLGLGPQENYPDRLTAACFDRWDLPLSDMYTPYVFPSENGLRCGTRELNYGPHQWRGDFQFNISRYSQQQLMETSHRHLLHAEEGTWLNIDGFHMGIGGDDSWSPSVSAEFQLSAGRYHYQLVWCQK
Chain of DNA dC->dU-editing enzyme APOBEC-3G (Q9HC16 whole entry): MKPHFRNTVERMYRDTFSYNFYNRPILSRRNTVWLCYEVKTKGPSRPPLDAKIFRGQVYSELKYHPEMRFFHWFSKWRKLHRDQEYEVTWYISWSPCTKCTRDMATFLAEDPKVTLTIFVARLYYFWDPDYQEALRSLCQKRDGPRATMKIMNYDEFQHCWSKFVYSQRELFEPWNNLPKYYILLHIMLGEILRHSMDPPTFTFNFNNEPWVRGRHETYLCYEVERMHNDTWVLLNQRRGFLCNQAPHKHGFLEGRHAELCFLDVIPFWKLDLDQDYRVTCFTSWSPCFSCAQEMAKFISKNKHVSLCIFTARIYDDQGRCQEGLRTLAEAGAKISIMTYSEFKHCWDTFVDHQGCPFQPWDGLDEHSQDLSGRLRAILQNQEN
Chain of Cytochrome P450 2C9 (P11712 whole entry): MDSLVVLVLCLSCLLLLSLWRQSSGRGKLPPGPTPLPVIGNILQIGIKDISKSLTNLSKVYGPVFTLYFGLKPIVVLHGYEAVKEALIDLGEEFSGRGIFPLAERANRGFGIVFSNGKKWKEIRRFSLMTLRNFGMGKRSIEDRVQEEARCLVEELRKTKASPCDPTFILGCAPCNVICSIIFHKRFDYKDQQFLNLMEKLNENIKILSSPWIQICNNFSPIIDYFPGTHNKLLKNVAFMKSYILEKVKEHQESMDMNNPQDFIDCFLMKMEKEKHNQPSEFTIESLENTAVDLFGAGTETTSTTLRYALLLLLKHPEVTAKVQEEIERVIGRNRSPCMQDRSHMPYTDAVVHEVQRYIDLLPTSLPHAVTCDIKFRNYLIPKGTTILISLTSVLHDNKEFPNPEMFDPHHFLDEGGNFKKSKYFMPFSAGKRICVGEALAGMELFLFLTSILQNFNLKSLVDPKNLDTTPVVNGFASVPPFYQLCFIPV
Chain of Cytochrome P450 2C19 (P33261 whole entry): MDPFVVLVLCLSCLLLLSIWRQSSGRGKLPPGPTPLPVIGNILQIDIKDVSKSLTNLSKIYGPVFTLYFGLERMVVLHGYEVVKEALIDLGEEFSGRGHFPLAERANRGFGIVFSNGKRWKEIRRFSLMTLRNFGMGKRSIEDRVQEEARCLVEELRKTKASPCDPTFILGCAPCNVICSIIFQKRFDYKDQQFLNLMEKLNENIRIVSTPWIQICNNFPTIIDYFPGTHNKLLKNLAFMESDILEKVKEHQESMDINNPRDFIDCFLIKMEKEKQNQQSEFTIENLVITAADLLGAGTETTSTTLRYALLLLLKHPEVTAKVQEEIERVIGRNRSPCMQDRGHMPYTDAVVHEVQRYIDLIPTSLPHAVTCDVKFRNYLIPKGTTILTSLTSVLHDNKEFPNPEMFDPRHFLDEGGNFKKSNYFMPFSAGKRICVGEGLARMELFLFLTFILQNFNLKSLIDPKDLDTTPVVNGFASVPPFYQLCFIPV

Question: For `Cc1ccc(NC(=O)CNCc2ccccn2)cc1S(=O)(=O)N(C)C`, which AC50 [1] is on record?
Answer: 127 µM (active)

Question: With `Cc1c(Cl)cccc1/N=C/c1ccc([N+](=O)[O-])s1` as the molecule, how does the EC50 [2] read?
Answer: 26.5 µM (active)

Question: And the EC50 [3]?
Answer: 40.3 µM (active)

Question: What about the AC50 [4] of the same molecule?
Answer: 7.37 µM (active)

Question: What about the IC50 [5] of the same molecule?
Answer: 5.17 µM (active)

Question: And the IC50 [6]?
Answer: 3.66 µM (active)

Question: What does the source list for `CCCCCc1ccc(OCCCC[n+]2ccc(C)cc2)c(CCCCC)c1`?
Answer: EC50 [7]: > 160 µM (inactive); EC50 [8]: 0.516 µM (active); IC50 [9]: 58 µM (inactive); AC50 (INS1): 1.92 µM (active); AC50 [10]: 21.7 µM (active)

Question: Which EC50 (Beta-galactosidase) does the source give for `Cc1cc(C)nc(NNS(=O)(=O)c2c(F)cc(F)cc2Br)n1` here?
Answer: > 40 µM (inactive)

Question: And the IC50 [11]?
Answer: 22.7 µM (not active)

Question: With `Cc1ccc(C(=O)Nc2nnc(SCC(=O)N3CCCc4ccccc43)s2)cc1` as the molecule, how does the AC50 (HEK293) read?
Answer: 1.3 µM (active)

Question: For `CCOc1ccc(C(=O)CCNC(Cc2c[nH]cn2)C(=O)O)cc1` (centres undefined), which AC50 [1] is on record?
Answer: 124 µM (active)

Question: For `OCc1ccccc1SSc1ccccc1CO`, which IC50 (Large T antigen) is on record?
Answer: 11.4 µM (active)

Question: And the IC50 [12]?
Answer: > 80 µM (inactive)

Question: And the IC50 [13]?
Answer: 12.3 µM (active)

Question: And the EC50 [14]?
Answer: > 104 µM (inactive)

Question: Which AC50 [15] does the source give for `CC(=O)c1ccc(C(=O)N2CCCC(CO)(Cc3ccccc3C)C2)s1` (centres undefined) here?
Answer: 4.14 µM (active)

Question: What does the source list for `O=C(c1cc2ccccc2oc1=O)N1CCOCC1`?
Answer: EC50 [16]: > 91.2 µM (inactive); EC50 [17]: > 91.2 µM (inactive)

Question: With `O=C(COC(=O)c1cccc(O)c1)c1ccccc1` as the molecule, how does the EC50 [16] read?
Answer: > 91.1 µM (inactive)

Question: What about the EC50 [17] of the same molecule?
Answer: > 91.1 µM (inactive)

Question: For `Cc1ccc(-c2cc[nH]c(=S)n2)cc1`, which AC50 (Cytochrome P450 2C19) is on record?
Answer: 14.1 µM (inconclusive)

Question: And the EC50 [14]?
Answer: > 104 µM (inactive)

Question: And the AC50 (Cytochrome P450 3A4)?
Answer: 14.1 µM (inconclusive)

Question: What about the AC50 (Cytochrome P450 2C9) of the same molecule?
Answer: 10 µM (inconclusive)

Question: With `CCNC(=O)C1(C)CCCN(Cc2ccc(-c3ccccc3)o2)C1` (centres undefined) as the molecule, how does the IC50 (Interleukin-8) read?
Answer: > 79 µM (inactive)
